Experimental data taken from PMC4583543, “Development and Validation of a Novel Leishmania donovani Screening Cascade for High-Throughput Screening Using a Novel Axenic Assay with High Predictivity of Leishmanicidal Intracellular Activity” (PLoS Neglected Tropical Diseases, 2015).
Where two headings read alike, the source gives them in different places.

Experiments:
[1] = test system: eGFP expressing LdBOB amastigote-like cells in PMA differentiated THP-1 cells; experiment: Intramacrophage (intracellular, INMAC) assay; format: cell-based, Leishmania donovani; conditions: for EC50: Leishmania donovani
Protocol: (§1) Compounds were dispensed into 384-well assay plates by acoustic dispensing (LabCyte ECHO). […] Potencies are reported as pEC50 (-LOG(EC50[M])).
(§2) All data was processed using IDBS ActivityBase. […] Potency plates were normalised to DMSO control (0% effect) and 2μM amphotericin B control (100% effect). […] For compounds with low activity and poor definition of the curve top, B was fixed to 100. For the determination of the reference compound panel potency, all experiments were carried out with a minimum of three independent repeats.
(§3) The assay conditions are described previously. Briefly PMA differentiated THP-1 cells were infected overnight with eGFP expressing LdBOB amastigote-like cells at a multiplicity of infection of 5. Next, any remaining free amastigote-like cells are removed and compounds are added. The microscopy-based read-out is done after a four day compound incubation.

[2] = test system: LdBOB axenic amastigote-like cells; experiment: Novel (cidal) axenic amastigote assay, BacTiter-Glo read-out; format: cell-based, Leishmania donovani
Source text: Leishmania donovani BOB cells (LdBOB) used in this study are a cloned line from strain MHOM/SD/62/1S-CL2 [13]. Cultures were maintained as described previously. Compounds were dispensed into 384-well assay plates by acoustic dispensing (LabCyte ECHO). […] Potencies are reported as pEC50 (-LOG(EC50[M])). All data was processed using IDBS ActivityBase. […] For compounds with low activity and poor definition of the curve top, B was fixed to 100. For the determination of the reference compound panel potency, all experiments were carried out with a minimum of three independent repeats. Test compounds were pre-dispensed into white 384 well plates (Corning). For library screens one compound per well was tested at the indicated final concentration. […] DMSO, zero percent effect control: cells at starting concentration. The zero percent effect control wells are left empty during the course of the assay. […] The assay volume is 25 μl / well. […] Plates were then sealed with clear film and relative luminescence was detected using a plate reader (Victor 3) from Perkin Elmer or PHERAstar FS from BMG LABTECH, with 0.5 s detection time per well).

THP-1 cells = experiment: THP-1 host cell toxicity in the intramacrophage assay; format: cell-based, human; conditions: for EC50: Homo sapiens
Protocol: as §1, §2, §3

HepG2 cells = experiment: HepG2 assay (mammalian counterscreen, resazurin); format: cell-based, human; conditions: for EC50: Homo sapiens, read-out: HepG2 (potency, pEC50) (converted)
Protocol: Compounds were dispensed into 384-well assay plates by acoustic dispensing (LabCyte ECHO). […] Potencies are reported as pEC50 (-LOG(EC50[M])). All data was processed using IDBS ActivityBase. […] For compounds with low activity and poor definition of the curve top, B was fixed to 100. For the determination of the reference compound panel potency, all experiments were carried out with a minimum of three independent repeats. The assay conditions are described previously.

[3] = THP-1, DOS library compounds, dose response, read-out: INMAC (intracellular) pEC50 (converted)
[4] = THP-1, 96 h, read-out: Intramacrophage (potency, pEC50) (converted)
[5] = Leishmania donovani; read-out: Novel (axenic assay potency, pEC50) (converted)
[6] = THP-1, 96 h, reference compound panel, mean (standard deviation), minimum three independent repeats, four day incubation, read-out: Intramacrophage (potency, pEC50) (converted)
[7] = THP-1, reference compound panel, mean (standard deviation), host cell toxicity, read-out: THP-1 (potency, pEC50) (converted)
[8] = HepG2, reference compound panel, mean (standard deviation), 72 h
[9] = Leishmania donovani; DOS library compounds, ten-point dose response; read-out: cAX pEC50 (converted)
[10] = THP-1, DOS library compounds, dose response, read-out: THP1 pEC50 (converted)
[11] = reference compound panel; mean (standard deviation), minimum three independent repeats; top concentration 50 μM; pEC50 = -LOG(EC50[M])
[12] = reference compound panel, mean (standard deviation), minimum three independent repeats, four day incubation
[13] = reference compound panel, mean (standard deviation), host cell toxicity
[14] = reference compound panel, mean (standard deviation), 72 h
[15] = single concentration screen at 25 μM

Structure (SMILES)	EC50 [1, 3] [µM]	EC50 [2, 5] [µM]	EC50 [1, 6] [µM]	EC50 (THP-1 cells; [7]) [µM]	EC50 (HepG2 cells; [8]) [µM]	further results
CCCNC(=O)N1[C@H](C#N)[C@@H](c2ccc(-c3cccc(OC)c3)cc2)[C@H]1CO [BRD6650 SRS stereoisomer]	20					
C[C@@]12C(=O)OC(=O)[C@]1(C)[C@H]1CC[C@@H]2O1 [Cantharidin]						EC50 ([2]; Leishmania donovani, read-out: Novel (axenic assay potency, pEC50) (converted)): 4.37 µM; EC50 [1, 4]: 13.2 µM; EC50 (THP-1 cells; THP-1, read-out: THP-1 (potency, pEC50) (converted)): 2.75 µM; EC50 (HepG2 cells; HepG2, 72 h): 1.35 µM
NCCCC(O)(P(=O)(O)O)P(=O)(O)O [Alendronic acid]		> 50.1	> 34.7	> 34.7	> 50.1	
CCCNC(=O)N1[C@H](C#N)[C@H](c2ccc(C#Cc3cccc(F)c3)cc2)[C@@H]1CO [BRD0645]	3.98					EC50 [2, 9]: 0.794 µM; EC50 (THP-1 cells; [10]): > 50.1 µM
O=c1cc(-c2ccc(O)c(O)c2)oc2cc(O)cc(O)c12 [Luteolin]		46.8	28.2	14.5	24.5	
OC(c1ccc(Cl)cc1)(c1cncnc1)c1ccccc1Cl (stereo not shown) [Fenarimol]		> 50.1	> 34.7	> 34.7	> 50.1	
CCCNC(=O)N1[C@H](C#N)[C@@H](c2ccccc2-c2ccc(OC)cc2)[C@@H]1CO [BRD2647 RRS stereoisomer]	39.8					
COc1ccc(-c2ccccc2[C@H]2[C@@H](C#N)N(C(=O)NC3CCCC3)[C@H]2CO)cc1 [BRD9613]	10					EC50 [2, 9]: 1.58 µM; EC50 (THP-1 cells; [10]): > 50.1 µM
CCCNC(=O)N1[C@H](C#N)[C@H](c2ccc(-c3cccnc3)cc2)[C@@H]1CO [BRD9157]	1.58					EC50 [2, 9]: 12.6 µM; EC50 (THP-1 cells; [10]): > 50.1 µM
CCCNC(=O)N1[C@H](C#N)[C@H](c2ccccc2-c2ccc(C)cc2)[C@@H]1CO [BRD4332]	6.31					EC50 [2, 9]: 0.631 µM; EC50 (THP-1 cells; [10]): > 50.1 µM
NC(=O)c1cnccn1 [Pyrazinamide]		> 50.1	> 34.7	> 34.7	> 50.1	
C[C@@H]1[C@H](O)[C@@H](C)/C=C/C=C/CC/C=C/C=C/C=C/C=C/C(O[C@H]2O[C@H](C)[C@@H](O)[C@H](N)[C@@H]2O)CC2O[C@](O)(CC(O)C(O)CCC(O)CC(O)CC(O)CC(=O)O[C@H]1C)CC(O)C2C(=O)O (stereo partly shown) [Nystatin]						Novel (axenic assay potency, pEC50) [2, 11]: 5.19 (0.21); Intramacrophage (potency, pEC50) [1, 12]: 4.68 (0.5); THP-1 (potency, pEC50) (THP-1 cells; [13]): < 4.46; HepG2 (potency, pEC50) (HepG2 cells; [14]): < 4.3
NC[C@@H]1O[C@H](O[C@H]2[C@@H](O)[C@H](O[C@@H]3[C@@H](O)[C@H](N)C[C@H](N)[C@H]3O[C@H]3O[C@H](CO)[C@@H](O)[C@H](O)[C@H]3N)O[C@@H]2CO)[C@H](N)[C@@H](O)[C@@H]1O [Paromomycin]		> 50.1	> 34.7	> 34.7	> 50.1	
OC(c1cc(C(F)(F)F)nc2c(C(F)(F)F)cccc12)C1CCCCN1 (stereo not shown) [Mefloquine]		> 50.1	8.51	12	9.77	activity in words (intracellular versus novel axenic) ([1]; reference compound panel): only active in the intracellular assay
Cn1c([N+](=O)[O-])cnc1COc1ccc(S(C)(=O)=O)cc1 [Fexinidazole sulfone]		7.76	32.4	> 34.7	> 50.1	
C=CC(C)(C)c1cc(/C=C/C(=O)c2ccc(O)cc2)c(OC)cc1O [Licochalcone A]						Novel (axenic assay potency, pEC50) [2, 11]: 4.67 (0.15); Intramacrophage (potency, pEC50) [1, 12]: 4.65 (0.17); THP-1 (potency, pEC50) (THP-1 cells; [13]): 4.46 (0.01); HepG2 (potency, pEC50) (HepG2 cells; [14]): 4.44 (0.09)
COc1ccc2cc3[n+](cc2c1OC)CCc1cc2c(cc1-3)OCO2 [Berberine]		9.33	16.2	> 34.7	33.9	
N=C(N)c1ccc(OCCCCCOc2ccc(C(=N)N)cc2)cc1 [Pentamidine]		8.71	15.5	> 34.7	2.82	

Structure (SMILES)	EC50 [1, 3] [µM]	EC50 [2, 5] [µM]	EC50 [1, 6] [µM]	EC50 (THP-1 cells; [7]) [µM]	EC50 (HepG2 cells; [8]) [µM]	further results
CC(C)Cn1cnc2c(N)nc3ccccc3c21 [Imiquimod]		> 50.1		> 34.7	> 50.1	EC50 [1, 4]: > 34.7 µM
CCCNC(=O)N1[C@H](C#N)[C@H](c2ccc(-c3cccc(OC)c3)cc2)[C@@H]1CO [BRD6650]	2					EC50 [2, 9]: 0.501 µM; EC50 (THP-1 cells; [10]): > 50.1 µM
CCCNC(=O)N1[C@H](CO)[C@@H](c2ccccc2-c2ccc(OC)cc2)[C@@H]1C#N [BRD2647 SSR stereoisomer]						activity in the initial HTS assay [2, 15]: inactive
CC1CS(=O)(=O)CCN1/N=C/c1ccc([N+](=O)[O-])o1 (stereo not shown) [Nifurtimox]		11.2	> 34.7	> 34.7	> 50.1	
Cc1ccc(C(=O)Nc2ccc(S(=O)(=O)O)c3cc(S(=O)(=O)O)cc(S(=O)(=O)O)c23)cc1NC(=O)c1cccc(NC(=O)Nc2cccc(C(=O)Nc3cc(C(=O)Nc4ccc(S(=O)(=O)O)c5cc(S(=O)(=O)O)cc(S(=O)(=O)O)c45)ccc3C)c2)c1 [Suramin]		> 50.1	> 34.7	> 34.7	> 50.1	
CCCNC(=O)N1[C@H](C#N)[C@H](c2ccc(C#Cc3ccc(F)cc3)cc2)[C@@H]1CO [BRD1184]	2					EC50 [2, 9]: 0.631 µM; EC50 (THP-1 cells; [10]): 15.8 µM
CC(=O)O[C@@]12CO[C@@H]1C[C@H](O)[C@@]1(C)C(=O)[C@H](O)C3=C(C)[C@@H](OC(=O)[C@H](O)[C@@H](NC(=O)OC(C)(C)C)c4ccccc4)C[C@@](O)([C@@H](OC(=O)c4ccccc4)[C@H]21)C3(C)C [Docetaxel]		8.91	14.5	> 34.7		
COc1ccc(-c2ccccc2[C@H]2[C@@H](C#N)N(C(=O)NC(C)C)[C@H]2CO)cc1 [BRD3029]	12.6					EC50 [2, 9]: 1.58 µM; EC50 (THP-1 cells; [10]): > 50.1 µM
CCCNC(=O)N1[C@H](CO)[C@H](c2ccc(-c3cccc(OC)c3)cc2)[C@@H]1C#N [BRD6650 SRR stereoisomer]	31.6					
CCCNC(=O)N1[C@H](C#N)[C@H](c2ccccc2-c2ccc(OC)cc2)[C@@H]1CO [BRD2647]	6.31					EC50 [2, 9]: 1.58 µM; EC50 (THP-1 cells; [10]): > 50.1 µM
CCCNC(=O)N1[C@H](C#N)[C@@H](c2ccc(-c3cccc(OC)c3)cc2)[C@@H]1CO [BRD6650 RRS stereoisomer]	15.8					
CCCNC(=O)N1[C@H](CO)[C@@H](c2ccc(-c3cccc(OC)c3)cc2)[C@@H]1C#N [BRD6650 SSR stereoisomer]	10					
CCCNC(=O)N1[C@H](C#N)[C@H](c2ccc(-c3cccc(OC)c3)cc2)[C@H]1CO [BRD6650 SSS stereoisomer]	20					
CCCNC(=O)N1[C@H](CO)[C@H](c2ccccc2-c2ccc(OC)cc2)[C@@H]1C#N [BRD2647 SRR stereoisomer]						activity in the initial HTS assay [2, 15]: inactive
CCCNC(=O)N1[C@@H](C#N)[C@@H](c2ccc(-c3cccc(OC)c3)cc2)[C@@H]1CO [BRD6650 RRR stereoisomer]	50.1					
CC(C)NC(=O)N1[C@H](C#N)[C@H](c2ccc(-c3ccc(F)cc3)cc2)[C@@H]1CO [BRD3486]	6.31					EC50 [2, 9]: 2 µM; EC50 (THP-1 cells; [10]): 10 µM
CCCNC(=O)N1[C@H](C#N)[C@H](c2ccc(C3=CCCCC3)cc2)[C@@H]1CO [BRD5744]	2					EC50 [2, 9]: 0.794 µM; EC50 (THP-1 cells; [10]): > 50.1 µM
